Measured values: patent US4395408A, “Steroids” (Roussel Uclaf, priority 1980, dated 1983)
Structures can show the parent of a compound that is named as a salt.

System: mice
Assay: Acute Toxicity (lethal dose LD0)
Assay type: in vivo
Conditions: for DL0 I.P. (maximum dose which did not cause any mortality after 8 days): intraperitoneal

SMILES | DL0 I.P. (maximum dose which did not cause any mortality after 8 days) [mg/kg] | DL0 oral (maximum dose which did not cause any mortality after 8 days) [mg/kg]
C[C@H](O)[C@@]1(O)CC[C@H]2[C@@H]3CC[C@H]4C[C@H](N)CC[C@]4(C)[C@H]3CC[C@@]21C [Example 3, (20S)3α-amino-5α-pregnane-17α,20-diol hydrochloride] | 60 | 200
C[C@H](O)[C@H]1CC[C@H]2[C@@H]3CC[C@H]4C[C@@H](N)CC[C@@H]4[C@H]3CC[C@]12C [Example 5, (20S)3β-amino-19-nor-5α-pregnane-20-ol hydrochloride] | 100 | 400
CC(=O)[C@@]1(O)CC[C@H]2[C@@H]3CC[C@H]4C[C@H](N)CC[C@]4(C)[C@H]3CC[C@@]21C [Example 6, 3α-amino-5α-pregnane-17α-ol-20-one hydrochloride] | 60 | ≥ 400
C/C=C1/CC[C@H]2[C@@H]3CC[C@H]4C[C@H](N)CC[C@]4(C)[C@H]3CC[C@]12C [Example 1, (Z) 3α-amino-Δ^17(20) -5α-pregnene hydrochloride] | 100 | ≥ 400
